The source of these data is patent US11673910B2, “Macrolides with modified desosamine sugars and uses thereof” (Zikani Therapeutics, Inc., priority 2017, dated 2023).

≈ marks a conversion by molar mass, not a printed value. Some results are limits rather than exact numbers.

Format in all cases: cell-based
In test [1] the test system is E. coli strain MP-4. The test is described as follows: Broth dilution MIC determination (CLSI) against E. coli strain MP-4. As to conditions: Escherichia coli, MP4. The procedure, abridged: (§1)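 Reported scores reflect MIC ranges, with +++ at or below 4 mg/L, ++ from 8 up to under 32 mg/L, and + at 32 mg/L or higher. The macrolides were tested following CLSI broth dilution procedures.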
(In general: Dilution methods test growth across graded concentrations, often in twofold steps.)

Test [2] has as its system K. pneumoniae strain MP-548. The test is described as follows: Broth dilution MIC determination (CLSI) against K. pneumoniae strain MP-548. As to conditions: Klebsiella pneumoniae, MP548. The procedure, abridged:
as §1

In test [3] the test system is P. aeruginosa strain MP-3. As to the kind of experiment: Broth dilution MIC determination (CLSI) against P. aeruginosa strain MP-3. As to conditions: Pseudomonas aeruginosa, MP3. The procedure, abridged:
as §1

Test [4] concerns A. baumannii strain MP-15. As to the kind of experiment: Broth dilution MIC determination (CLSI) against A. baumannii strain MP-15. As to conditions: Acinetobacter baumannii, MP15. The procedure, abridged: as §1
Test [5] deals with S. aureus strain MP-12. The test is described as follows: Broth dilution MIC determination (CLSI) against S. aureus strain MP-12. As to conditions: Staphylococcus aureus, MP12, strain MP-12. The procedure, abridged: as §1

For the compound `CC[C@H]1OC(=O)C(C)C(=O)[C@H](C)[C@@H](OC2OC(CN(C)C(=O)C(C)(C)C)CC(N(C)C)C2O)[C@](C)(OC)C[C@@H](C)CN[C@H](C)[C@H]2NC(=O)O[C@@]21C` (some centres unmarked) [Compound 170, 3-Descladinosyl-3-oxo-6-O-methyl-N9a-desmethyl-11,12-dideoxy-12,11-(oxycarbonylimino)-6′-(N-methyl-N-pivaloylamino) Azithromycin], the MIC in test [1] is 8 to 32 µg/mL (≈ 11 to 44 µM); in test [2], at least 32 µg/mL; in test [3] it was at least 32 µg/mL; in test [4] it was at least 32 µg/mL; in test [5], at least 32 µg/mL.
Turning to `CC[C@H]1OC(=O)C(C)C(=O)[C@H](C)[C@@H](O[C@@H]2O[C@H](CN(C)C(=O)CN(C)C)CC(N(C)C)[C@H]2O)[C@](C)(OC)C[C@@H](C)CN[C@H](C)[C@H]2NC(=O)O[C@@]21C` (some centres unmarked) [Compound 171, 3-Descladinosyl-3-oxo-6-O-methyl-N9a-desmethyl-11,12-dideoxy-12,11-(oxycarbonylimino)-6′-N-methyl-2″-dimethylamino-acetamide Azithromycin], the MIC in test [1] was at most 4 µg/mL; in test [2], at least 32 µg/mL; in test [3] it was at least 32 µg/mL; in test [4], at least 32 µg/mL; in test [5], at least 32 µg/mL.
Regarding `CC[C@H]1OC(=O)C(C)C(=O)[C@H](C)[C@@H](O[C@@H]2O[C@H](CN(C)C(=O)CN(C)C3CC3)CC(N(C)C)[C@H]2O)[C@](C)(OC)C[C@@H](C)CN[C@H](C)[C@H]2NC(=O)O[C@@]21C` (some centres unmarked) [Compound 172, 3-Descladinosyl-3-oxo-6-O-methyl-N9a-desmethyl-11,12-dideoxy-12,11-(oxycarbonylimino)-6′-(N-methyl-N-(2-cyclopropylamino)acetylamino) Azithromycin], the MIC in test [1], in test [2], in test [3], in test [4] and in test [5] was at least 32 µg/mL in each case.
For `CC[C@H]1OC(=O)C(C)C(=O)[C@H](C)[C@@H](O[C@@H]2O[C@H](CN(C)C(=O)CNC)CC(N(C)C)[C@H]2O)[C@](C)(OC)C[C@@H](C)CN[C@H](C)[C@H]2NC(=O)O[C@@]21C` (some centres unmarked) [Compound 173, 3-Descladinosyl-3-oxo-6-O-methyl-N9a-desmethyl-11,12-dideoxy-12,11-(oxycarbonylimino)-6′-N-methyl-2″-methylamino-acetamide Azithromycin], the MIC in test [1], in test [2], in test [3], in test [4] and in test [5] was at least 32 µg/mL each time.
On to `CC[C@H]1OC(=O)C(C)C(=O)[C@H](C)[C@@H](O[C@@H]2O[C@H](CN)CC(N(C)C)[C@H]2O)[C@](C)(OC)C[C@@H](C)CN[C@H](C)[C@H]2NC(=O)O[C@@]21C` (some centres unmarked) [Compound 174, 3-Descladinosyl-3-oxo-6-O-methyl-N9a-desmethyl-11,12-dideoxy-12,11-(oxycarbonylimino)-11-methyl-6′-amino Azithromycin], for which the MIC in test [1], in test [2], in test [3], in test [4] and in test [5] was at least 32 µg/mL in each case.
Regarding `CC[C@H]1OC(=O)C(C)C(=O)[C@H](C)[C@@H](O[C@@H]2O[C@H]([C@H](C)N(C)C)CC(N(C)C)[C@H]2O)[C@](C)(OC)C[C@@H](C)CN[C@H](C)[C@H]2NC(=O)O[C@@]21C` (stereo partly drawn) [Compound 175, 3-Descladinosyl-3-oxo-6-O-methyl-N9a-desmethyl-11,12-dideoxy-12,11-(oxycarbonylimino)-6′-((S)-(dimethylamino)ethyl) Azithromycin], the MIC was at most 4 µg/mL in test [1]; 8 to 32 µg/mL (≈ 11.9 to 47.7 µM) in test [2]; at least 32 µg/mL in test [3]; at least 32 µg/mL in test [4]; at least 32 µg/mL in test [5].
For the compound `CC[C@H]1OC(=O)C(C)C(=O)[C@H](C)[C@@H](O[C@@H]2O[C@H]([C@@H](C)N(C)C)CC(N(C)C)[C@H]2O)[C@](C)(OC)C[C@@H](C)CN[C@H](C)[C@H]2NC(=O)O[C@@]21C` (stereo partly drawn) [Compound 176, 3-Descladinosyl-3-oxo-6-O-methyl-N9a-desmethyl-11,12-dideoxy-12,11-(oxycarbonylimino)-6′-((R)-(dimethylamino)ethyl) Azithromycin], the MIC in test [1], in test [2], in test [3], in test [4] and in test [5] was at least 32 µg/mL in each case.
As to `CC[C@H]1OC(=O)C(C)C(=O)[C@H](C)[C@@H](O[C@@H]2O[C@H](C(C)N(CC3CC3)CC3CC3)CC(N(C)C)[C@H]2O)[C@](C)(OC)C[C@@H](C)CN[C@H](C)[C@H]2NC(=O)O[C@@]21C` (stereo partly drawn) [Compound 177, 3-Descladinosyl-3-oxo-6-O-methyl-N9a-desmethyl-11,12-dideoxy-12,11-(oxycarbonylimino)-6′-((R,S)-(dicyclopropylmethylamino)ethyl) Azithromycin], the minimal inhibitory concentration (MIC) in test [1] was 8 to 32 µg/mL (≈ 10.7 to 42.6 µM); in test [2], at least 32 µg/mL; in test [3], at least 32 µg/mL; in test [4] it was at least 32 µg/mL; in test [5], at least 32 µg/mL.
For the compound `CC[C@H]1OC(=O)C(C)C(=O)[C@H](C)[C@@H](O[C@@H]2O[C@H](C(C)NCC3CC3)CC(N(C)C)[C@H]2O)[C@](C)(OC)C[C@@H](C)CN[C@H](C)[C@H]2NC(=O)O[C@@]21C` (stereo partly drawn) [Compound 178, 3-Descladinosyl-3-oxo-6-O-methyl-N9a-desmethyl-11,12-dideoxy-12,11-(oxycarbonylimino)-6′-((R,S)-(cyclopropylmethylamino)ethyl) Azithromycin], the MIC in test [1] is at most 4 µg/mL; in test [2], 8 to 32 µg/mL (≈ 11.5 to 45.9 µM); in test [3], at least 32 µg/mL; in test [4], at least 32 µg/mL; in test [5] it was at least 32 µg/mL.
As to `CC[C@H]1OC(=O)C(C)C(=O)[C@H](C)[C@@H](O[C@@H]2O[C@H]([C@H](C)N3CCCCC3)CC(N(C)C)[C@H]2O)[C@](C)(OC)C[C@@H](C)CN[C@H](C)[C@H]2NC(=O)O[C@@]21C` (stereo partly drawn) [Compound 179, 3-Descladinosyl-3-oxo-6-O-methyl-N9a-desmethyl-11,12-dideoxy-12,11-(oxycarbonylimino)-6′-((S)-1-(piperidin-1-yl)ethyl) Azithromycin], the MIC in test [1] is at most 4 µg/mL; in test [2] it was 8 to 32 µg/mL (≈ 11.3 to 45 µM); in test [3] it was at least 32 µg/mL; in test [4], at least 32 µg/mL; in test [5], at least 32 µg/mL.
On to `CC[C@H]1OC(=O)C(C)C(=O)[C@H](C)[C@@H](O[C@@H]2O[C@H](C(C)N)CC(N(C)C)[C@H]2O)[C@](C)(OC)C[C@@H](C)CN[C@H](C)[C@H]2NC(=O)O[C@@]21C` (some centres unmarked) [Compound 181, 3-Desdadinosyl-3-oxo-6-O-methyl-N9a-desmethyl-11,12-dideoxy-12,11-(oxycarbonylimino)-6′-aminoethyl Azithromycin], for which the minimal inhibitory concentration (MIC) in test [1] is 8 to 32 µg/mL (≈ 12.4 to 49.8 µM); in test [2], at least 32 µg/mL; in test [3], at least 32 µg/mL; in test [4], at least 32 µg/mL; in test [5], at least 32 µg/mL.
Regarding `CC[C@@H]1CC(N(C)C)[C@@H](O)[C@H](O[C@@H]2[C@@H](C)C(=O)C(C)C(=O)O[C@H](CC)[C@@]3(C)OC(=O)N[C@@H]3[C@@H](C)NC[C@H](C)C[C@@]2(C)OC)O1` (some centres unmarked) [Compound 182, 3-Descladinosyl-3-oxo-6-O-methyl-N9a-desmethyl-11,12-dideoxy-12,11-(oxycarbonylimino)-5′-desmethyl-5′-ethyl Azithromycin], the MIC in test [1] is at most 4 µg/mL; in test [2], 8 to 32 µg/mL (≈ 12.7 to 51 µM); in test [3], at least 32 µg/mL; in test [4] it was 8 to 32 µg/mL (≈ 12.7 to 51 µM); in test [5], 8 to 32 µg/mL (≈ 12.7 to 51 µM).
Turning to `CC[C@H]1OC(=O)C(C)C(=O)[C@H](C)[C@@H](O[C@@H]2O[C@H](CCC(C)C)CC(N(C)C)[C@H]2O)[C@](C)(OC)C[C@@H](C)CN[C@H](C)[C@H]2NC(=O)O[C@@]21C` (some centres unmarked) [Compound 183, 3-Descladinosyl-3-oxo-6-O-methyl-N9a-desmethyl-11,12-dideoxy-12,11-(oxycarbonylimino)-6′-isobutyl Azithromycin], the minimal inhibitory concentration (MIC) in test [1] was 8 to 32 µg/mL (≈ 11.9 to 47.8 µM); in test [2], at least 32 µg/mL; in test [3] it was at least 32 µg/mL; in test [4] it was 8 to 32 µg/mL (≈ 11.9 to 47.8 µM); in test [5], 8 to 32 µg/mL (≈ 11.9 to 47.8 µM).
For the compound `CC[C@H]1OC(=O)C(C)C(=O)[C@H](C)[C@@H](O[C@@H]2O[C@H](CC(C)C)CC(N(C)C)[C@H]2O)[C@](C)(OC)C[C@@H](C)CN[C@H](C)[C@H]2NC(=O)O[C@@]21C` (some centres unmarked) [Compound 184, 3-Desdadinosyl-3-oxo-6-O-methyl-N9a-desmethyl-11,12-dideoxy-12,11-(oxycarbonylimino)-6′-isopropyl Azithromycin], the MIC in test [1] was at most 4 µg/mL; in test [2] it was 8 to 32 µg/mL (≈ 12.2 to 48.8 µM); in test [3] it was at least 32 µg/mL; in test [4] it was 8 to 32 µg/mL (≈ 12.2 to 48.8 µM); in test [5], at most 4 µg/mL.
Consider `CC[C@H]1OC(=O)C(C)C(=O)[C@H](C)[C@@H](O[C@@H]2O[C@H](CCC3CC3)CC(N(C)C)[C@H]2O)[C@](C)(OC)C[C@@H](C)CN[C@H](C)[C@H]2NC(=O)O[C@@]21C` (some centres unmarked) [Compound 185, 3-Descladinosyl-3-oxo-6-O-methyl-N9a-desmethyl-11,12-dideoxy-12,11-(oxycarbonylimino)-6′-cyclopropylmethyl Azithromycin], for which the MIC was 8 to 32 µg/mL (≈ 12 to 47.9 µM) in test [1]; at least 32 µg/mL in test [2]; at least 32 µg/mL in test [3]; 8 to 32 µg/mL (≈ 12 to 47.9 µM) in test [4]; 8 to 32 µg/mL (≈ 12 to 47.9 µM) in test [5].
As to `CC[C@H]1OC(=O)C(C)C(=O)[C@H](C)[C@@H](O[C@@H]2O[C@H](CCc3ccccc3)CC(N(C)C)[C@H]2O)[C@](C)(OC)C[C@@H](C)CN[C@H](C)[C@H]2NC(=O)O[C@@]21C` (some centres unmarked) [Compound 186, 3-Descladinosyl-3-oxo-6-O-methyl-N9a-desmethyl-11,12-dideoxy-12,11-(oxycarbonylimino)-6′-benzyl Azithromycin], the MIC in test [1] was at most 4 µg/mL; in test [2], 8 to 32 µg/mL (≈ 11.4 to 45.5 µM); in test [3], at least 32 µg/mL; in test [4], 8 to 32 µg/mL (≈ 11.4 to 45.5 µM); in test [5], at most 4 µg/mL.

By MIC is commonly meant the lowest concentration that inhibits growth of the organism.
